Experimental data as given in patent publication US8263607B2, “1-substituted tetrahydroisoquinoline compound” (Astellas Pharma Inc., priority 2007, dated 2012).

Columns and labels:
[1] = test system: formalin-induced pain behaviors; experiment: Nociceptive pain model (mouse formalin test); format: in vivo, mice (ddY, male); details: 100 mg/kg oral, 30 min before formalin; pain behaviors 15 to 25 min after formalin, vs vehicle
Procedure: A mouse formalin test was carried out by a modification of the method as described in the literature [Murakami et al., Eur. J. Pharmacol. 419: 175-181 (2001)]. When 20 μL of 2.0% formalin was subcutaneously administered to the paw pads of mice (ddY, male, 5 weeks old), pain behaviors (limb withdrawal and licking behaviors) were induced in the treated animal limbs. From 15 to 25 minutes after the administration of formalin, the time taken for the onset of pain behaviors was measured to thereby evaluate the inhibitory action of the test compound on pain behaviors of animals. The test compound was orally given 30 minutes prior to the administration of formalin. […] Inhibition rate(%)=100−(mean onset time of pain behaviors in test compound-treated group)/(mean onset time of pain behaviors in vehicle-treated group)×100

[2] = test system: mechanical allodynia in L5/L6 spinal nerve-ligated rats; experiment: Neuropathic pain model (antiallodynic effects in L5/L6 spinal nerve-ligated rats, von Frey hair test); format: in vivo, rats (SD, male); details: 30 to 60 min before measurement, response threshold, ipsilateral 0% / contralateral 100% of vehicle group
Procedure: The antiallodynic effects of the compounds of the present invention were confirmed by assessing the analgesic action in L5/L6 spinal nerve-ligated rats. The assessment was carried out by the method of Kim and Chung (Pain 50, 355-363, 1992) with some modifications.
Under pentobarbital anesthesia, the left L5 and L6 spinal nerves of male SD rats (5-6 weeks old) were tightly ligated with silk thread. For the assessment of analgesic action, the von Frey hair test was adopted. That is, the animal's hind paw pad was pricked with hair and the lowest strength of hair for limb withdrawal response was designated as a response threshold (log gram) to mechanical stimulation. […] On the day before the assessment of the test compound, the response threshold before administration of the test compound was measured. The animals were divided into 4 to 5 groups such that mean value differences of response thresholds between groups before administration of the test compound and within-group variation become small. In the assessment of the test compound, the response threshold after administration of the test compound was measured. The test compound was orally administered 30 to 60 minutes before the measurement of the response threshold. […] Recovery rate(%)={(mean of response threshold in test compound-treated group)−(mean of response threshold of ipsilateral paw in vehicle-treated group)}/{(mean of response threshold of contralateral paw in the vehicle-treated group)−(mean of response threshold of ipsilateral paw in the vehicle-treated group)}×100

[3] = test system: CRD-induced abdominal flexion reflex behaviors; experiment: Abdominal pain model (CRD-induced abdominal pain in rats); format: in vivo, rat (Wistar, male); details: 10 mg/kg oral, 30 min before distension; abdominal flexion reflex behaviors at internal pressure of 45 mmHg
Procedure: Improving effects of the compounds of the present invention on digestive tract pain were confirmed by assay of CRD-induced abdominal pain in rats. The rat CRD-induced abdominal pain assay was carried out by a modification of the method described in the literature [Neurogastroenterol. Motil. 15: 363-369 (2003)]. When stimulation of constant internal pressure is applied to the colorectum of an animal by inflation of a 6-cm long balloon inserted into the anus of the rat (Wistar, male, 250-350 g), abdominal flexion reflex behaviors are induced due to abdominal pain. A frequency of reflex behaviors occurring during distension stimulation of 5 minutes was counted to estimate an abdominal pain-inhibitory action of the test compound. The test compound was orally administered 30 minutes before the initiation of distension stimulation. Estimation of the test compound was made by calculating an inhibition rate (%) of abdominal flexion reflex behaviors on the vehicle-treated group.

[4] = test system: loperamide-induced bead transit delay; experiment: Spastic constipation model (loperamide-induced colorectal bead transit delay test in mice); format: in vivo, mouse (ddY, male); details: 3 mg/kg oral, concurrently with loperamide 0.3 mg/kg s.c.; bead excretion time
Procedure: A 3-mm diameter glass bead is deeply inserted at a depth of 2 cm into the anus of the mouse (ddY, male, 6 weeks old), and the time taken for excretion of the bead is measured. […] With improving effects on the loperamide-induced bead transit delay, a bowel movement-improving action of the test compound on spastic constipation was evaluated. The test compound was orally administered concurrently with administration of loperamide (30 minutes before the insertion of the bead). The assessment of the test compound was made from calculation of an improvement rate in the bead excretion time of the test compound-treated/loperamide-treated group, by taking the bead excretion time of the non-test compound treated/non-loperamide treated (vehicle-treated/vehicle-treated) group as 100%, and by taking the bead excretion time of the non-test compound treated/loperamide-treated (vehicle-treated/loperamide-treated) group as 0%.

[5] = test system: mechanical allodynia in L5/L6 spinal nerve-ligated rats; details: known; cited from earlier work

With `O=C(CNCC1(O)CCCCC1)N1CCc2ccccc2[C@@H]1C1CCCCC1` [Example 1, 1-[({2-[(1S)-1-cyclohexyl-3,4-dihydroisoquinolin-2(1H)-yl]-2-oxoethyl}amino)methyl]cyclohexanol] the Inhibition rate [1] was 52% and the “Recovery rate (%) (dose)” value ([2]; 30 mg/kg oral) was 95%.

For `COC[C@@H](O)CNCC(=O)N1CCc2ccccc2[C@@H]1C1CCCCC1` [Example 157], the Inhibition rate [1] was 52%, the “Recovery rate (%) (dose)” value ([2]; 30 mg/kg oral) was 97% and the Inhibition rate [3] was 59%. For the same compound, the Inhibition rate [4] was 40%.

`COc1ccc2c(c1)CCN(C(=O)CNCC1(O)CCCCC1)[C@H]2C(C)C` [Example 415] showed an Inhibition rate [3] of 60% and an Inhibition rate [4] of 88%.

In the case of `COC[C@@H](O)CNCC(=O)N1CCc2ccccc2[C@@H]1Cc1ccccc1C(F)(F)F` [Example 433], the Inhibition rate [1] is reported as 60%, the “Recovery rate (%) (dose)” value ([2]; 10 mg/kg oral) is reported as 80% and the Inhibition rate [3] is reported as 43%. It also gave an Inhibition rate [4] of 73%.

With `COc1cccc2c1[C@H](c1ccccc1)N(C(=O)CNC[C@@H](C)O)CC2` [Example 435] the Inhibition rate [3] was 46% and the Inhibition rate [4] was 67%.

For `CCc1ccc2c(c1)[C@H](COC)N(C(=O)CNCC1(O)CCCCC1)CC2` [Example 436], the Inhibition rate [1] was 55%, the “Recovery rate (%) (dose)” value ([2]; 10 mg/kg oral) was 156% and the Inhibition rate [3] was 56%. For the same compound, the Inhibition rate [4] was 59%.

With `COc1cccc2c1[C@H](c1ccccc1)N(C(=O)CNC[C@@H](C)O)CC2` [Example 575] the Inhibition rate [1] was 77% and the “Recovery rate (%) (dose)” value ([2]; 10 mg/kg oral) was 83%.

In the case of `CN1CC[C@]23c4c5ccc(O)c4O[C@H]2[C@@H](O)C=C[C@H]3[C@H]1C5` [morphine], the “recovery of mechanical allodynia with treatment of morphine” value [5] is listed as “only a partial recovery”.
